Columns and labels:
[1] = system: subcutaneous CT-26WT syngeneic graft of large intestine cancer; experiment: Drug efficacy test, combined use of IDO/TDO inhibitor and oxaliplatin, mice with subcutaneous CT-26WT syngeneic graft (Test Example 5); assay type: in vivo, mouse; conditions: 40 mg/kg oral twice a day in 0.5% methyl cellulose, combined with oxaliplatin 10 mg/kg i.v.; Balb/c mice; FIG. 4
Description: Drug Efficacy Test on Combined Use of IDO/TDO Inhibitor and Oxaliplatin Using Mice with a Subcutaneous CT-26WT Syngeneic Graft of Large Intestine Cancer
5×10^5 cells of syngeneic large intestine cancer cell line CT26WT were subcutaneously transplanted to each of 6-week-old female Balb/c mice. The mice were divided into groups each involving 6 individuals 10 days later within a tumor size range of 41-427 mm^3. The oral administration (solvent for oral administration and 40 mg/kg each of epacadostat and compounds 37, 31, 7, 15, 1, 50, 52, 76, 95, 33, 49, 2, 10, 36, 103, 38 and 29 were administered twice a day at a 5-hour interval from days 1 to 5 and days 8 to 12) and intravenous injection (5% glucose solution and 10 mg/kg oxaliplatin were administered once a day on days 1 and 8) of each agent were started. Then, the major axis and minor axis of subcutaneous tumor were measured three times a week using calipers, and a mean and standard error of the mean of the ratios of the calculated volumes to the volumes at the administration start day in each group were plotted. The calculation expression was Volume (mm^3)=[[…]×Length (mm)]/2. The agent for oral administration was suspended in 0.5% methyl cellulose as a solvent for oral administration. The results are shown in FIG. 4 (if a plurality of experiments were conducted for the same agent, the results were combined).
• with the solid line: the solvent for oral administration and the 5% glucose solution, ▪ with the solid line: compound 37 and oxaliplatin, ▴ with the solid line: epacadostat and oxaliplatin, X with the solid line: compound 31 and oxaliplatin, ∘ with the solid line: the solvent for oral administration and oxaliplatin, □ with the solid line: compound 7 and oxaliplatin, Δ with the solid line: compound 15 and oxaliplatin, X with the solid line: compound 1 and oxaliplatin, • with the broken line: compound 50 and oxaliplatin, ▪ with the broken line: compound 52 and oxaliplatin, ▴ with the broken line: compound 76 and oxaliplatin, X with the broken line: compound 95 and oxaliplatin, ∘ with the broken line: compound 33 and oxaliplatin, □ with the broken line: compound 49 and oxaliplatin, Δ with the broken line: compound 2 and oxaliplatin, + with the solid line: compound 10 and oxaliplatin, rectangle with the solid line: compound 36 and oxaliplatin, • with the dotted line: compound 103 and oxaliplatin, ▪ with the dotted line: compound 38 and oxaliplatin, and ▴ with the dotted line: compound 29 and oxaliplatin.

[2] = target: rhTDO (recombinant human TDO) (Homo sapiens, UniProt P48775); experiment: Enzyme assay using rhTDO (rate of kynurenine production); assay type: biochemical; conditions: 2 h; final concentration of the compound 10 μM; rate relative to reaction without compound; read-out: rhTDO-mediated kynurenine production
Outline: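 Kynurenine output, as percent of untreated control after background subtraction, read at 490 nm with p-dimethylbenzaldehyde following TCA quench and 15 min heating at 50 °C. Reaction: rhTDO with compound, 10 min preincubation then 120 min at 37 °C, started by 20 mM tryptophan stock, in phosphate/ascorbate/methylene blue/catalase.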

[3] = target: rhIDO (recombinant human IDO) (Homo sapiens, UniProt P14902); experiment: Enzyme assay using rhIDO (rate of kynurenine production); assay type: biochemical; conditions: 2 h; final concentration of the compound 10 μM; rate relative to reaction without compound; read-out: rhIDO-mediated kynurenine production
Outline: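 Kynurenine formation, expressed as % of uncompounded reaction after background subtraction, was read by absorbance at 490 nm following TCA stop, 50 °C hydrolysis and Ehrlich-type p-dimethylbenzaldehyde staining. Recombinant human IDO with ascorbate/methylene blue/catalase was pre-exposed to compound 10 min, then reacted 120 min at 37 °C after adding 2 mM tryptophan stock.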

Chain of rhTDO (recombinant human TDO) (P48775 whole entry): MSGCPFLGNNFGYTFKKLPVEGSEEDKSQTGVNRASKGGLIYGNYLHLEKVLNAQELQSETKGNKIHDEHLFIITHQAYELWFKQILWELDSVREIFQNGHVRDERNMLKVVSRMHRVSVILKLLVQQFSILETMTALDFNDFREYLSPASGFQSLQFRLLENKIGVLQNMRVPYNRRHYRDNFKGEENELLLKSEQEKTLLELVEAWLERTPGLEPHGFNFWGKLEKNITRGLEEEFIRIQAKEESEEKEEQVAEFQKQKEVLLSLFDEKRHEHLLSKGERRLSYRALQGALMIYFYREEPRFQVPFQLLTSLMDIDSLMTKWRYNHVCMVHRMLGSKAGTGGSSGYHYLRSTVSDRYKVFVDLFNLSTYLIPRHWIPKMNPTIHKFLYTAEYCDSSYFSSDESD
Chain of rhIDO (recombinant human IDO) (P14902 whole entry): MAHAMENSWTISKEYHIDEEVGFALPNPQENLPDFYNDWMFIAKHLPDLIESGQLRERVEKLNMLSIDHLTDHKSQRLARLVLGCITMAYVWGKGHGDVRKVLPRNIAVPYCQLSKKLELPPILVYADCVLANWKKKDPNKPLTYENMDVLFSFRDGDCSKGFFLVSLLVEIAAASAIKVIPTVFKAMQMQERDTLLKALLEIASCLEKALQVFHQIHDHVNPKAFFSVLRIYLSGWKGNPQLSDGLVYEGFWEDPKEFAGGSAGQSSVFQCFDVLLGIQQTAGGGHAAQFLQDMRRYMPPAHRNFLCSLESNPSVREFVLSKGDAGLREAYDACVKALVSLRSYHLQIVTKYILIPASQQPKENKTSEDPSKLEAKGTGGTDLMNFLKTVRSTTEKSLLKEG

SMILES	remaining activity at 10 µM [2]	remaining activity at 10 µM [3]	tumor growth (ratio of tumor volume to start day) [1]
Cl.Cl.c1ccc(CCN2CN=C(SCc3cscc3CSC3=NCN(CCc4ccccc4)CN3)NC2)cc1 [Compound 33, 3,4-Bis{[(5-phenethyl-1,4,5,6-tetrahydro-1,3,5-triazin-2-yl)thio]methyl}thiophene dihydrochloride]	21%	37%	can suppress tumor growth
Br.Br.N=C(N)SCc1ccc(Br)cc1CSC(=N)N [Compound 10, (4-bromo-1,2-phenylene)bis(methylene) dicarbamimidothioate dihydrobromide]	3%	1%	can suppress tumor growth
Br.Br.N=C(N)SCc1ccc(Cl)cc1CSC(=N)N [Compound 7, (4-chloro-1,2-phenylene)bis(methylene) dicarbamimidothioate dihydrobromide]	3%	10%	can suppress tumor growth
Br.N#Cc1ccc(CNC(=O)c2cc(Br)ccc2CSC(=N)N)cc1 [Compound 103, 4-Bromo-2-((4-cyanobenzyl)carbamoyl)benzyl carbamimidothioate hydrobromide]	22%	0%	can suppress tumor growth
Br.Br.N=C(N)SCc1cscc1CSC(=N)N [Compound 15, thiophene-3,4-diylbis(methylene) dicarbamimidothioate dihydrobromide]	12%	22%	can suppress tumor growth
Cl.Cl.N=C(N)SCc1ccccc1CSC(=N)N [Compound 1, 1,2-phenylenebis(methylene) dicarbamimidothioate dihydrochloride]	13%	26%	can suppress tumor growth
Clc1cc(CSC2=NCN(CCc3ccccc3)CN2)c(CSC2=NCN(CCc3ccccc3)CN2)cc1Cl [Compound 37, 6,6′-(((4,5-Dichloro-1,2-phenylene)bis(methylene))bis(sulfanediyl))bis(3-phenethyl-1,2,3,4-tetrahydro-1,3,5-triazine)]	< 7%	< 9%	can suppress tumor growth
Br.Br.N=C(N)SCc1ccc(F)cc1CSC(=N)N [Compound 2, (4-fluoro-1,2-phenylene)bis(methylene) dicarbamimidothioate dihydrobromide]	6%	11%	can suppress tumor growth
Br.N#Cc1ccc(CNC(=O)c2ccc(Br)cc2CSC(=N)N)cc1 [Compound 76, 5-Bromo-2-((4-cyanobenzyl)carbamoyl)benzyl carbamimidothioate hydrobromide]	15%	78%	can suppress tumor growth

The next lines start with results.

remaining activity at 10 µM [2]	remaining activity at 10 µM [3]	SMILES	tumor growth (ratio of tumor volume to start day) [1]
15%	1%	N/C(=N\c1ccc(Br)cc1)SCc1ccc(Br)cc1CS/C(N)=N/c1ccc(Br)cc1 [Compound 49, (4-Bromo-1,2-phenylene)bis(methylene) (E,E)-bis(N′-(4-bromophenyl)carbamimidothioate)]	can suppress tumor growth
17%	11%	Br.Br.N=C(N)SCc1ccsc1CSC(=N)N [Compound 31, thiophene-2,3-diylbis(methylene) dicarbamimidothioate dihydrobromide]	can suppress tumor growth
4%	9%	Clc1cc(CSC2=NCN(CC3CCCCC3)CN2)c(CSC2=NCN(CC3CCCCC3)CN2)cc1Cl [Compound 50, 6,6′-(((4,5-Dichloro-1,2-phenylene)bis(methylene))bis(sulfanediyl))bis(3-(cyclohexylmethyl)-1,2,3,4-tetrahydro-1,3,5-triazine)]	can suppress tumor growth
15%	23%	c1ccc(CSC2=NCN(CC3CCCCC3)CN2)c(CSC2=NCN(CC3CCCCC3)CN2)c1 [Compound 29, 1,2-bis(((5-(cyclohexylmethyl)-1,4,5,6-tetrahydro-1,3,5-triazin-2-yl)thio)methyl)benzene]	can suppress tumor growth
5%	14%	Brc1ccc(CSC2=NCN(CC3CCCCC3)CN2)c(CSC2=NCN(CC3CCCCC3)CN2)c1 [Compound 52, 6,6′-(((4-Bromo-1,2-phenylene)bis(methylene))bis(sulfanediyl))bis(3-(cyclohexylmethyl)-1,2,3,4-tetrahydro-1,3,5-triazine)]	can suppress tumor growth
6%	3%	Br.Br.N/C(=N\c1ccc(F)cc1F)SCc1ccccc1CS/C(N)=N/c1ccc(F)cc1F [Compound 95, 1,2-Phenylenebis(methylene) (E,E)-bis(N-(2,4-difluorophenyl)carbamimidothioate)dihydrobromide]	can suppress tumor growth

— patent publication US12209079B2 (GENERAL INCORPORATED ASSOCIATION PHARMA VALLEY PROJECT …, priority 2017, dated 2025)
